Assay results: US5102870A, “Treatment and prevention of oral mucositis with growth factors” (Schering AG, priority 1989, dated 1992)

Test system: mucositis induced by the administration of 5-FU in hamsters
Test: 5-fluorouracil plus mechanical irritation induced oral mucositis model, cheek pouch
Format: in vivo, Golden Syrian hamsters
Excerpt: An animal model for studying the acute effects of chemotherapy and radiotherapy in the oral cavity was developed by Dr. Stephen T. Sonis at Brigham and Women's Hospital, Boston, Mass. This model was particularly suited for testing the efficacy of growth factors on chemotherapy mucositis. This model utilizes an acute regimen of 5-fluorouracil (5-FU) combined with mechanical irritation to induce mucositis. More specifically, intraperitoneal (i.p.) injections of 5-fluorouracil were combined with superficial mechanical mucosal irritation to result in clinical breakdown of the oral mucosa as characterized by ulcerative mucositis in Golden Syrian hamsters. […] For these reasons, it was believed that this model would be extremely beneficial in evaluating growth factors to treat mucositis.
The following experiment was performed to determine the effects of growth factors, specifically TGF-α, on the prevention and healing of mucositis induced by the administration of 5-FU in hamsters. Example 1:
One hundred young male Golden Syrian hamsters were divided into four groups of 25 animals each. Beginning on day 0, animals received twice daily dosing of their cheek pouch buccal mucosa as follows:
Medication was applied in a volume of 0.2 ml of Orabase per cheek pouch. The right cheek pouch was mechanically irritated by superficial scratching starting at day 0, daily until erythematous changes were noted. For most animals, such changes were noted by day 2 and mechanical irritation discontinued. For the remaining animals, mechanical irritation was stopped at day 3. Beginning on day 0, all of the animals received i.p. injections of 5-FU at a dose of 60 mg/kg body weight, with additional dosing on days 5 and 10. The animals were observed and weighed daily. On days 2, 4, 6, 8, 10, 12, 14, 16, 18 and 20, two animals were randomly sacrificed in each group. Cheek pouches were biopsied. The tissue was then placed in 10% formalin for histologic study according to established methods, and subsequently stained with hematoxylin and eosin. The following parameters were evaluated and scored: inflammatory infiltrate, degree of epithelial atropy, extent of epithelial breakdown/ulceration, mitotic activity at would margins and evidence of superficial/secondary infection. Two randomly selected hamsters from each group had their cheek pouches photographed daily. The animals were weighed and observed daily. […] Mucositis was scored using the following established scale:
Grade 0--no evidence of ulcers or mucositis
Grade 1--erythema but no ulceration
Grade 2--1 or 2 small (<2 mm), single ulcers
Grade 3--1 large or 3 or more small ulcers
Grade 4--multiple large ulcers and/or involvement of 50% of pouch mucosal surface area
The animals were evaluated both for the ability of TGF-α to delay the onset and reduce the severity of mucositis. The data presented here are based upon clinical observations. Histologic evaluation of biopsied cheek pouches corroborated these observations.

Q: “transforming growth factor-alpha [TGF-α]” was tested. Which “averaged mucositis grades (severity of mucositis)” value (Group III, TGF-α in Orabase 2 μg/dose (low dose), twice daily, compared among groups) did it give?
A: Its value is “best results”.

Q: What about the “development of grade 3/4 mucositis” value (Group III, TGF-α in Orabase 2 μg/dose, twice daily) of the same substance?
A: The value was “did not develop”.

Q: What about the “day of development of grade 3/4 mucositis” value (Group IV, TGF-α in Orabase 20 μg/dose, twice daily) of the same substance?
A: The value was 9 days.

Q: And the “onset of mucositis (development of grade 3 and 4 mucositis)” value (TGF-α groups vs Group I (none) and Group II (Orabase only))?
A: Its value is “delayed the onset of mucositis”.

Q: And the “averaged mucositis grades (severity of mucositis)” value (groups receiving TGF-α in Orabase (2 or 20 μg/dose), topical to cheek pouch twice daily, 18 day period, vs control groups)?
A: The value was “lower overall scores”.
